The assay addresses T1, ATP9A (Homo sapiens, UniProt O75110).
T1 construct: N-terminal region before Pro38 deleted; N-terminal His6-EGFP tag cut off with HRV-3C; HEK293S GnT1- (BacMam); LMNG/GDN micelles; monomer, about 90 kDa
T1 sequence (O75110 38-1047): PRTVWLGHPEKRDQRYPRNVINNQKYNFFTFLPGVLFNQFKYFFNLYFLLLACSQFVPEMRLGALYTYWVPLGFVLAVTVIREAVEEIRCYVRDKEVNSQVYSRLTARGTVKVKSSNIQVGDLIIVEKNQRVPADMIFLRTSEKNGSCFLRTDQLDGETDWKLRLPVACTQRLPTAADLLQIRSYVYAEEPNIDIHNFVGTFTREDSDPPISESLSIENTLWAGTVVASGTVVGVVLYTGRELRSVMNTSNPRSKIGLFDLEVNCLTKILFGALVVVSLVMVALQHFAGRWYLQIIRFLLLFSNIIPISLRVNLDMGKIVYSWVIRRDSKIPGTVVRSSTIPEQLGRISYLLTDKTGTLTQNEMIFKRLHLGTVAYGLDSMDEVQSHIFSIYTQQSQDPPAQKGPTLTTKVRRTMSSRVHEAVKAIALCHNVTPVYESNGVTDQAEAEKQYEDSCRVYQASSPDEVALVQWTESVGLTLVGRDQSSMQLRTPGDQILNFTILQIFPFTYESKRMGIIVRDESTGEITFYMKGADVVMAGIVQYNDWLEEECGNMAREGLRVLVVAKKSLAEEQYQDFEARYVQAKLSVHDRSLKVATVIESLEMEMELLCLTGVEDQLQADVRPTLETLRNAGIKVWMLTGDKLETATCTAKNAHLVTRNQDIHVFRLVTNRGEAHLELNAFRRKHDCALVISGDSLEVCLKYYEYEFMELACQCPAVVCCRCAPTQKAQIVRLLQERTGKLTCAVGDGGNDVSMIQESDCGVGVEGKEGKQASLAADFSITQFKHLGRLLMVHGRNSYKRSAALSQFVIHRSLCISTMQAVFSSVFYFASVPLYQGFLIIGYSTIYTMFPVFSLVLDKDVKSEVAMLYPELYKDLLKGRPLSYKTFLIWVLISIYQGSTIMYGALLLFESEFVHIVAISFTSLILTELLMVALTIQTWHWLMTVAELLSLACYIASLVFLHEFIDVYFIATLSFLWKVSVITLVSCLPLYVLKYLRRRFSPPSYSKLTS
Nature of the assay: cryo-EM structure. Type of assay: binding.

Structures are written as SMILES.

Turning to `CC(C)CCC[C@@H](C)[C@H]1CC[C@H]2[C@@H]3CC=C4C[C@@H](O)CC[C@]4(C)[C@H]3CC[C@]12C` [CLR, cholesterol], the cryo-EM structure result (open form, E2P BeF state, lipid modelled from density, not added, outside canonical phospholipid site) is “Bound phospholipids (PLs) and cholesterol (CLR) in the open form are indicated”.

With `[F][Be-]([F])[F]` [BeF], the cryo-EM structure entry (phosphate analog bound at catalytic Asp391, E2P state, open (9VDK, 2.18 Å) and closed (9VDL, 2.31 Å) forms, made from 1 mM BeSO4 and 3 mM NaF, also used as ATPase blank) is reported as “The phosphate analog BeF is bound to the catalytic Asp391”.
